Measurements published in ChEMBL document CHEMBL5620403, “Design, synthesis, activity and molecular dynamics studies of 1,3,4-thiadiazole derivatives as selective allosteric inhibitors of SHP2 for the treatment of cancer” (Eur J Med Chem, 2023).
The source made the active and inactive calls. No cut-off for these calls is given here.

How the values were obtained:
MV4-11 [1] = experiment: Induction of apoptosis in human MV4-11 cells assessed as necrotic cells at 5 uM measured after 1 hrs by Annexin V-FITC/7-AAD staining based flow cytometric analysis (reference value: 0.068%); assay type: functional
MDA-MB-468 = experiment: Antiproliferative activity against human MDA-MB-468 cells assessed as inhibition of cell growth measured after 72 hrs by CCK8 method; assay type: functional, cell-based; conditions: MDA-MB-468, 72 h
MV4-11 [2] = experiment: Induction of apoptosis in human MV4-11 cells assessed as viable cells at 5 uM measured after 1 hrs by Annexin V-FITC/7-AAD staining based flow cytometric analysis (reference value: 96.8%); assay type: functional; conditions: read-out: Activity
MV4-11 [3] = experiment: Induction of apoptosis in human MV4-11 cells assessed as necrotic cells at 1.25 uM measured after 4 hrs by Annexin V-FITC/7-AAD staining based flow cytometric analysis (reference value: 0.041%); assay type: functional
[4] = target: T1, Tyrosine-protein phosphatase non-receptor type 11 (Homo sapiens) (UniProt Q06124); experiment: Inhibition of SHP2 in human MV4-11 cells assessed as reduction in Akt phosphorylation level at upto 20 uM measured after 4 hrs by Western blot analysis; assay type: cell-based
T1 sequence (whole entry): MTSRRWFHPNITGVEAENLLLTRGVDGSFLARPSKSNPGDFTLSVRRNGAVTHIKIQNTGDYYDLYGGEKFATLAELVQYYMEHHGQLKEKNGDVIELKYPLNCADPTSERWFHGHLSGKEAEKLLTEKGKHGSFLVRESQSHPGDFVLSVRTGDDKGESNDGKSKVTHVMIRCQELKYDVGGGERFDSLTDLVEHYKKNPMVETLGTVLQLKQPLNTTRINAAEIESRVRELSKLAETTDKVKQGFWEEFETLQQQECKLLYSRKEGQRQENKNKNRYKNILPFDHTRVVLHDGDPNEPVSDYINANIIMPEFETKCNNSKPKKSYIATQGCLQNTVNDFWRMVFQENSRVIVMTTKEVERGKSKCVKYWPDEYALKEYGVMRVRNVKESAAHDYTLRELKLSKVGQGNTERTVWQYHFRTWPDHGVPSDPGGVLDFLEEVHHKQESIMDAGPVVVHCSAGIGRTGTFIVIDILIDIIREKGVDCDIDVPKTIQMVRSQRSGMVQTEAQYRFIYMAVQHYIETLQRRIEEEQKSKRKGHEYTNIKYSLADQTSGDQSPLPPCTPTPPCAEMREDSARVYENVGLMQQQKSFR

MV4-11 [5] = experiment: Induction of apoptosis in human MV4-11 cells assessed as viable cells at 5 uM measured after 4 hrs by Annexin V-FITC/7-AAD staining based flow cytometric analysis (reference value: 96.8%); assay type: functional; conditions: read-out: Activity
[6] = target: Tyrosine-protein phosphatase non-receptor type 6 (Homo sapiens, UniProt P29350); experiment: Inhibition of full length recombinant human SHP1 (1 to 570 residues) using DIPMUP as substrate preincubated for 30 mins followed by substrate addition and measured after 30 mins by fluorescence based analysis
MV4-11 [7] = experiment: Induction of apoptosis in human MV4-11 cells assessed as viable cells at 5 uM measured after 4 hrs by Annexin V-FITC/7-AAD staining based flow cytometric analysis (reference value: 95.9%); assay type: functional; conditions: read-out: Activity
MV4-11 [8] = experiment: Induction of apoptosis in human MV4-11 cells assessed as necrotic cells at 5 uM measured after 2 hrs by Annexin V-FITC/7-AAD staining based flow cytometric analysis (reference value: 0.068%); assay type: functional
MV4-11 [9] = experiment: Induction of apoptosis in human MV4-11 cells assessed as early apoptotic cells at 5 uM measured after 4 hrs by Annexin V-FITC/7-AAD staining based flow cytometric analysis (reference value: 2.13%); assay type: functional
[10] = target: T1, Tyrosine-protein phosphatase non-receptor type 11 (Homo sapiens); experiment: Inhibition of SHP2 in human NCI-H358 cells assessed as reduction in Akt phosphorylation level at upto 20 uM measured after 8 hrs by Western blot analysis; assay type: cell-based
[11] = target: T2, Tyrosine-protein phosphatase non-receptor type 11 (Homo sapiens, UniProt Q06124); experiment: Inhibition of full length wild type recombinant human SHP2 (1 to 525 residues) using DIPMUP as substrate preincubated for 30 mins followed by substrate addition and measured after 30 mins by fluorescence based analysis
T2 sequence (Q06124 whole entry): T1 sequence (whole entry)

Sequence of Tyrosine-protein phosphatase non-receptor type 6 (P29350 whole entry, the tested form may be a part): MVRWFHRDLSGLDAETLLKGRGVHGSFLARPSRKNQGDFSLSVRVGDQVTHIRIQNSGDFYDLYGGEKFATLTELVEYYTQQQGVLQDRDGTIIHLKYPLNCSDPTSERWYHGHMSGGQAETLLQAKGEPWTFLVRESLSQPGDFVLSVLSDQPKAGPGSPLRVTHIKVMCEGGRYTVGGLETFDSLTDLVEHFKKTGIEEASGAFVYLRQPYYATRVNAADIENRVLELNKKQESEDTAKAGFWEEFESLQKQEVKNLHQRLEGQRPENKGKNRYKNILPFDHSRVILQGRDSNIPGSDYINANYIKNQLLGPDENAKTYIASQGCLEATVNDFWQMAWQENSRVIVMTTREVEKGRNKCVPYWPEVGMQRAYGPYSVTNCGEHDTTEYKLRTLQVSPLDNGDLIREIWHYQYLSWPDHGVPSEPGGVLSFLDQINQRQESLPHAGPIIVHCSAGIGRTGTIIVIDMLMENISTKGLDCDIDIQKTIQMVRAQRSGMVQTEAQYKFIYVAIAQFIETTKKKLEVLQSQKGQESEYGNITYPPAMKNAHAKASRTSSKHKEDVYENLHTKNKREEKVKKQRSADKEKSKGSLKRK

`C[C@@H]1OCC2(CCN(c3nnc(Sc4cccc(Cl)c4Cl)s3)CC2)[C@@H]1N` gave an Activity (MV4-11 [1]) of 0.91%, an IC50 (MDA-MB-468) of 14.6 µM and a viability at 5 µM (MV4-11 [2]) of 90%. For the same compound, the Activity (MV4-11 [3]) was 0.12%, the inhibition [4] was “Active” and the viability at 5 µM (MV4-11 [5]) was 80%. It also gave an IC50 [6] of over 50 µM, a viability at 5 µM (MV4-11 [7]) of 84.1% and an Activity (MV4-11 [8]) of 1.17%. The Activity (MV4-11 [9]) was 10.8%, the inhibition [10] was “Active” and the IC50 [11] was 0.84 µM.
